Reference: ChEMBL document CHEMBL5321287, “Discovery, Synthesis, and Evaluation of Novel Dual Inhibitors of a Vascular Endothelial Growth Factor Receptor and Poly(ADP-Ribose) Polymerase for BRCA Wild-Type Breast Cancer Therapy” (J Med Chem, 2023)
pIC50: −log10 of the molar value. The source made the active and inactive calls. The rule behind the calls is not given here.

What was measured:
HCC1937 = experiment: Antiproliferative activity against human HCC1937 cells assessed as cell growth inhibition
[1] = biological target: Vascular endothelial growth factor receptor 1 (Homo sapiens, UniProt P17948); experiment: Inhibition of VEGFR1 phosphorylation at tyr1333 residue in human MDA-MB-231 cells xenografted in BALB/c nude mouse at 50 mg/kg, po for 14 days in presence of 1:1 of compound:Olaparib by H and E staining based IHC analysis; format: organism-based; details: time 14.0 day
MCF7 [2] = experiment: Downregulation of Olaparib-induced PAR expression in human MCF7 cells at 4 uM incubated for 2 days by Western blot analysis; format: functional, cell-based; details: time 2.0 day
MCF7 [3] = experiment: Induction of DNA damage in human MCF7 cells assessed as increase in gamma-H2AX level at 4 uM incubated for 48 hrs by DAPI staining based immunofluorescence analysis; format: functional, cell-based
MDA-MB-436 = experiment: cells; details: Homo sapiens
MCF7 [4] = experiment: Induction of apoptosis in human MCF7 cells assessed as decrease in Bcl-2 level at 4 uM incubated for 2 days in presence of 1:1 of compound:Olaparib by immunoblot analysis; format: functional, cell-based; details: time 2.0 day
MDA-MB-231 [5] = experiment: Induction of DNA damage in human MDA-MB-231 cells xenografted in BALB/c nude mouse assessed as increase in gamma-H2AX level at 50 mg/kg, po for 14 days in presence of 1:1 of compound:Olaparib by H and E staining based IHC analysis; format: functional, organism-based; details: time 14.0 day
MDA-MB-231 [6] = experiment: Induction of HR DNA repair in human MDA-MB-231 cells assessed as decrease in RAD51 level at 4 uM incubated for 48 hrs in presence of 1:1 of compound:Olaparib by DAPI staining based immunofluorescence analysis; format: functional, cell-based
MCF7 [7] = experiment: Induction of hypoxia in human MCF7 cells assessed as upregulation of HIF-1alpha level at 4 uM incubated for 2 days in presence 1:1 of Olaparib by Western blot analysis; format: functional, cell-based; details: time 2.0 day
MCF7 [8] = experiment: Antimigratory activity in human MCF7 cells assessed as downregulation of MMP-2 level at 4 uM in presence of 1:1 of compound:Olaparib by DAPI staining based immunofluorescence analysis; format: functional, cell-based
MCF7 [9] = experiment: Induction of cell cycle arrest at G2/M phase in human MCF7 cells at 4 uM in presence of 1:1 of compound:Olaparib by Annexin-V-FLUOS staining based flow cytometry; format: functional
MDA-MB-231 [10] = experiment: cells; details: Homo sapiens
MDA-MB-231 [11] = experiment: Antiproliferation activity against human MDA-MB-231 cells xenografted in BALB/c nude mouse assessed as decrease in Ki67 expression at 50 mg/kg, po for 14 days in presence of 1:1 of compound:Olaparib by H and E staining based IHC analysis; format: functional, organism-based; details: time 14.0 day
MCF7 [12] = experiment: Induction of apoptosis in human MCF7 cells assessed as increase in cleaved caspase-3 level at 4 uM incubated for 2 days in presence of 1:1 of compound:Olaparib by immunoblot analysis; format: functional, cell-based; details: time 2.0 day
MDA-MB-231 [13] = experiment: Induction of HR DNA repair in human MDA-MB-231 cells xenografted in BALB/c nude mouse assessed as decrease in RAD51 level at 50 mg/kg, po for 14 days in presence of 1:1 of compound:Olaparib by H and E staining based IHC analysis; format: functional, organism-based; details: time 14.0 day

Chain of Vascular endothelial growth factor receptor 1 (P17948 whole entry): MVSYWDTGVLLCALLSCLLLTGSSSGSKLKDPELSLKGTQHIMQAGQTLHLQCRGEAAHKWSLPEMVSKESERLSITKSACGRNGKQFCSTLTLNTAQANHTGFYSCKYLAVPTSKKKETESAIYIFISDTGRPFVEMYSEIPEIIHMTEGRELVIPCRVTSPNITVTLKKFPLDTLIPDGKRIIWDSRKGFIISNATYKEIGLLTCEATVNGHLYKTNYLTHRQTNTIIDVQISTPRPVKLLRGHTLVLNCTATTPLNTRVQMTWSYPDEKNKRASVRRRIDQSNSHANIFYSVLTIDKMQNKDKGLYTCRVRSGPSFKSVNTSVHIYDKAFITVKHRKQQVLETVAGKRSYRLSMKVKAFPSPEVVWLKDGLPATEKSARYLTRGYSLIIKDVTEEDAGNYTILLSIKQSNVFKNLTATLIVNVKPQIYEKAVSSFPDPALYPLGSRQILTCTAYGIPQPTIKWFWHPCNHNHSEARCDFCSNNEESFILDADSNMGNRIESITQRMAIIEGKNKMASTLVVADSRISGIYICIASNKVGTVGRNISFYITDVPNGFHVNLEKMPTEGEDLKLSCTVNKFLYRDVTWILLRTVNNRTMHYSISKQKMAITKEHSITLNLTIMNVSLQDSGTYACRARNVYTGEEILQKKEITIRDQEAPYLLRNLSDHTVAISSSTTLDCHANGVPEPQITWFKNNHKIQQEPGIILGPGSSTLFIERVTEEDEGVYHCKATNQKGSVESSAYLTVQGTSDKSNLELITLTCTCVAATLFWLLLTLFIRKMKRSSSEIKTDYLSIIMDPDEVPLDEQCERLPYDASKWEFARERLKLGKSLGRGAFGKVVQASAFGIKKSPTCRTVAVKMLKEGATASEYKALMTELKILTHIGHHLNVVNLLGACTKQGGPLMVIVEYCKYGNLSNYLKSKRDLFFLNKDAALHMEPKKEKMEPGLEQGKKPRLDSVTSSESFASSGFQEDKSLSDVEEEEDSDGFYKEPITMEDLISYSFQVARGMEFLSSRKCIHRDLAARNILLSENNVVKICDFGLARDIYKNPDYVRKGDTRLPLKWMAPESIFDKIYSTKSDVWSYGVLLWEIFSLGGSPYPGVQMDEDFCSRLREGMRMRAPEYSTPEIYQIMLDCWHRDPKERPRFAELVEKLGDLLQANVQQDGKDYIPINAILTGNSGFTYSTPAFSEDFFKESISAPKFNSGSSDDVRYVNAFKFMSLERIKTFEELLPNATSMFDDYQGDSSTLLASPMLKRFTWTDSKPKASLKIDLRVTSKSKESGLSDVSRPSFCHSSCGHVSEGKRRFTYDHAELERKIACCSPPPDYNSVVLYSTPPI

- pIC50 (HCC1937): < 5.00
- inhibition [1]: Active
- pIC50 (MDA-MB-436): < 5.00
- pIC50 (MDA-MB-231 [10]): < 5.00
Compound: Cc1ccc(Nc2nccc(N(C)c3ccc4c(C)n(C)nc4c3)n2)cc1S(N)(=O)=O [PAZOPANIB]
- Activity (MCF7 [2]): inactive
- Activity (MCF7 [3]): Active
- Activity (MCF7 [4]): Active
- Activity (MDA-MB-231 [5]): Active
- Activity (MDA-MB-231 [6]): Active
- Activity (MCF7 [7]): Active
- Activity (MCF7 [8]): Active
- Activity (MCF7 [9]): Active
- Activity (MDA-MB-231 [11]): Active
- Activity (MCF7 [12]): Active
- Activity (MDA-MB-231 [13]): Active
